Experimental data reported in PubChem BioAssay (NCI).
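96-well plates; 48 h exposure; 5 concentrations. Endpoints by linear interpolation between flanking doses. Not reached: highest tested concentration assigned. GI50 is the concentration that inhibits growth by half. TGI: concentration producing complete growth inhibition.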

Legend:
Experiment in all cases: NCI tumour cell line growth inhibition, 48 h
A498 renal = system: A498 renal
HOP-62 NSCLC = system: HOP-62 NSCLC
HS 578T breast = system: HS 578T breast
LOX IMVI melanoma = system: LOX IMVI melanoma
MALME-3M melanoma = system: MALME-3M melanoma
NCI-H23 lung = system: NCI-H23 lung
PC-3 prostate = system: PC-3 prostate
SK-OV-3 ovarian = system: SK-OV-3 ovarian
SW-620 colon = system: SW-620 colon
TK-10 renal = system: TK-10 renal

Row | SMILES | GI50 (A498 renal) [µM] | TGI (A498 renal) [µM] | GI50 (HOP-62 NSCLC) [µM] | TGI (HOP-62 NSCLC) [µM] | GI50 (HS 578T breast) [µM] | TGI (HS 578T breast) [µM] | GI50 (LOX IMVI melanoma) [µM] | TGI (LOX IMVI melanoma) [µM] | GI50 (MALME-3M melanoma) [µM] | TGI (MALME-3M melanoma) [µM] | GI50 (NCI-H23 lung) [µM] | TGI (NCI-H23 lung) [µM] | GI50 (PC-3 prostate) [µM] | TGI (PC-3 prostate) [µM] | GI50 (SK-OV-3 ovarian) [µM] | TGI (SK-OV-3 ovarian) [µM] | GI50 (SW-620 colon) [µM] | TGI (SW-620 colon) [µM] | GI50 (TK-10 renal) [µM] | TGI (TK-10 renal) [µM]
1 | COc1ccc(/C=C2\CCCC3=C2N=C2SC=NN2C3c2ccc(OC)c(OC)c2)cc1OC (centres undefined) | 2.76 | 40.8 | 24.3 | > 100 | 28.2 | > 100 | 16.6 | 75.1 | 22.6 | 78.7 | 22.4 | > 100 | 37.8 | > 100 | 56.4 | > 100 | 10.1 | 39.3 | 21 | 76.2
2 | O=C1[C@H](c2ccccc2)C2c3ccccc3CCN12 (some centres undefined) | > 100 | > 100 | > 100 | > 100 | > 100 | > 100 | > 100 | > 100 | > 100 | > 100 | > 100 | > 100 | > 100 | > 100 | > 100 | > 100 | > 100 | > 100 | > 100 | > 100
3 | CC1=NN(c2ccccc2)C(=O)C1C(=O)C(=O)Nc1ccc(C)cc1C (centres undefined) |  | > 100 |  | > 100 |  | > 100 |  | > 100 |  | > 100 |  | > 100 |  | > 100 |  | > 100 |  | > 100 |  | > 100
4 | COc1cc2c3c(n(CCCN4CCOCC4)c(=O)c2cc1OC)-c1cc2c(cc1C3=O)OCO2 | 7.53 | 54 | 1.86 | 55.7 | 71.3 | > 100 |  | > 35 | 6.6 | 84.5 | 1.97 | 27.2 | 18.7 | > 100 | > 77.6 | > 100 | 8.94 | > 100 | 34.6 | > 94.3
